These results are taken from patent publication US12252524B2, “GIP/GLP1 co-agonist compounds” (Eli Lilly and Company, priority 2018, dated 2025).

In assay [1] the target is human GLP-1 receptor (GLP-1R) (Homo sapiens, UniProt P43220). Kind of assay: cAMP pharmacological functional assay in presence of casein, hGLP-1R. The following applies: HEK293 cells expressing hGLP-1R, 0.1% Casein, geometric mean; read-out: hGLP1R cAMP Rel EC50 nM (SEM, n). The class given is cell-based.
Another assay concerns the target T1, human Gcg receptor (Homo sapiens, UniProt P47871).
T1 construct: expressed in transfected cells; crude membranes
The assay is described as follows: [125I]-Glucagon binding (SPA), human Gcg receptor. As to conditions: read-out: hGLcgR Ki, nM (SEM, n). The gist of the method:
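Scintillation counts are taken after membranes and WGA beads incubate and settle for 12 hours at room temperature. Buffer is 25 mM HEPES, pH 7.4, with CaCl2, MgCl2, bacitracin and Tween-20. Ki values, from four-parameter IC50 fits, are geometric means over independent days.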

In assay [2] the target is T2, gastric inhibitory peptide receptor (GIPR) (Homo sapiens, UniProt P48546).
T2 sequence (P48546 22-466): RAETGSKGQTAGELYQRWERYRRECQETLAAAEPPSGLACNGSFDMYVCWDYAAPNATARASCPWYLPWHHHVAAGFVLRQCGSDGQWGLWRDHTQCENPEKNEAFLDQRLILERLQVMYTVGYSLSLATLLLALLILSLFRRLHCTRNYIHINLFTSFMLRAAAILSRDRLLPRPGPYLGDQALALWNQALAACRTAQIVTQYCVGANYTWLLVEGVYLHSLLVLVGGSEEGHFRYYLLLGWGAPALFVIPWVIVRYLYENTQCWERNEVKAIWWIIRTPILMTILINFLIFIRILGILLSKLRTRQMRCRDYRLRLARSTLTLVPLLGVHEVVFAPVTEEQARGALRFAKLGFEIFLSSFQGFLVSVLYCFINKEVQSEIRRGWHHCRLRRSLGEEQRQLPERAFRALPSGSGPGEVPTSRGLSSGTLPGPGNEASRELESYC
Kind of assay: cAMP pharmacological functional assay in presence of casein, hGIPR. Type of assay: cell-based. The following applies: HEK293 cells expressing hGIPR, 0.1% Casein, geometric mean; read-out: hGIPR cAMP Rel EC50 nM (SEM, n).

A further assay concerns the target human GLP-1R (Homo sapiens, UniProt P43220). The assay is described as follows: [125I]-GLP-1 binding (SPA), human GLP-1 receptor. The following applies: read-out: hGLP1R Ki, (nM) (SEM, n). On the set-up: expressed in transfected cells; crude membranes. The gist of the method:
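Membranes: hypotonic lysis (50 mM Tris HCl, pH 7.5, protease inhibitors), Potter-Elvehjem homogenization, high-speed pellet (35000×g 1 h or 25000×g 30 min, 4° C.). Buffer: 25 mM HEPES pH 7.4, 2.5 mM CaCl2, 1 mM MgCl2. Four-parameter IC50 fit; Ki as geometric mean ± SEM.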

In another assay the target is T3, human GIP receptor (Homo sapiens, UniProt P48546).
T3 construct: expressed in transfected cells; crude membranes
T3 sequence (P48546 22-466): T2 sequence (P48546 22-466)
The assay is described as follows: [125I]-GIP binding (SPA), human GIP receptor. As to conditions: read-out: hGIPR Ki, nM (SEM, n).

Numbered stars: 1 amine (or outer) side, 2 acyl side, 3 side chain; on linkers, the order of the positions; unused ones are H or OH. Square brackets hold non-standard residues; d marks the D form. Side chains are listed from the residue outwards. Peptide text beside a SMILES is read from it. * marks the point of attachment. C20 diacid = O=C(O)CCCCCCCCCCCCCCCCCCC(=O)*; γGlu = O=C(O)[C@H](CCC(=O)[*:2])N[*:1]; αMeL = CC(C)C[C@](C)(N)C(=O)O; αMeK = C[C@](N)(CCCCN)C(=O)O; AEEA = NCCOCCOCC(=O)O; Aib = CC(C)(N)C(=O)O Where only a bound is given, the exact number is not on record here.

Sequence of human GLP-1 receptor (GLP-1R) (P43220 24-463): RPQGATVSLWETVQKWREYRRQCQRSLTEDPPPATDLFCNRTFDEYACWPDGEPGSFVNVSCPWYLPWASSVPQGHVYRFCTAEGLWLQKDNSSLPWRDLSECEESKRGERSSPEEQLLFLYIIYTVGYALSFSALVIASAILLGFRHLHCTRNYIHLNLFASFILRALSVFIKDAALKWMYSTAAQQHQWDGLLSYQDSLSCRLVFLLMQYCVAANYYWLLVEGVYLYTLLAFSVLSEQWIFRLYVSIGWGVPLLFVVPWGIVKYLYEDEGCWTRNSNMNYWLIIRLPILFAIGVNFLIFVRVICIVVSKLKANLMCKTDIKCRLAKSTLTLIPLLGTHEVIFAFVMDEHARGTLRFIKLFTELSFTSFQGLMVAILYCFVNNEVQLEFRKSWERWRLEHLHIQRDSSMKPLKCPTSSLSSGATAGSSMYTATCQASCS
Sequence of human GLP-1R (P43220 24-463): as above
T1 sequence (P47871 26-477): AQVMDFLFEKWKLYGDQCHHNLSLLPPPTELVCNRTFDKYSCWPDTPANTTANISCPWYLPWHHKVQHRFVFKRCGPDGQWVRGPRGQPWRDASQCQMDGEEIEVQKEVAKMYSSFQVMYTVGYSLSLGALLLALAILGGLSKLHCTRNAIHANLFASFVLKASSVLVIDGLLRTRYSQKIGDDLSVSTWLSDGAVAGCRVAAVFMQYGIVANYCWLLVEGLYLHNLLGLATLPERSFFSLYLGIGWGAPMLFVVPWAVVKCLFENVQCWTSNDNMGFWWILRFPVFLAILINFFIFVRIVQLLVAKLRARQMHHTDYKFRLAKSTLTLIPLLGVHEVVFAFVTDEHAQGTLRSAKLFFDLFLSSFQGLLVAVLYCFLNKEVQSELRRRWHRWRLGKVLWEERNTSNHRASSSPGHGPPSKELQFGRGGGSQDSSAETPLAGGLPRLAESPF

In the case of `CC[C@H](C)[C@H](NC(=O)[C@H](CC(C)C)NC(=O)[C@H](Cc1ccc(O)cc1)NC(=O)[C@H](CCC(=O)O)NC(=O)[C@@H](NC(=O)[C@H](Cc1ccccc1)NC(=O)[C@H](C)NC(=O)C(C)(C)NC(=O)[C@H](CCC(N)=O)NC(=O)[C@H](C)NC(=O)[C@H](CCCCNC(=O)COCCOCCNC(=O)COCCOCCNC(=O)CC[C@H](NC(=O)CCCCCCCCCCCCCCCCCCC(=O)O)C(=O)O)NC(=O)[C@H](CCCCN)NC(=O)[C@H](CC(=O)O)NC(=O)[C@H](CC(C)C)NC(=O)[C@](C)(CC(C)C)NC(=O)[C@@H](NC(=O)[C@H](CO)NC(=O)[C@H](Cc1ccc(O)cc1)NC(=O)[C@H](CC(=O)O)NC(=O)[C@H](CO)NC(=O)[C@@H](NC(=O)[C@H](Cc1ccccc1)NC(=O)[C@@H](NC(=O)CNC(=O)[C@H](CCC(=O)O)NC(=O)C(C)(C)NC(=O)[C@@H](N)Cc1ccc(O)cc1)[C@@H](C)O)[C@@H](C)O)[C@@H](C)CC)[C@@H](C)CC)C(=O)N[C@@H](CCC(=O)O)C(=O)NCC(=O)NCC(=O)N1CCC[C@H]1C(=O)N[C@@H](CO)C(=O)N[C@@H](CO)C(=O)NCC(=O)N[C@@H](C)C(=O)N1CCC[C@H]1C(=O)N1CCC[C@H]1C(=O)N1CCC[C@H]1C(=O)N[C@@H](CO)C(N)=O` [Example 20], the EC50 (commonly the concentration that produces a half-maximal response) in assay [1] was determined as 0.117 nM; in assay [2] it was 0.0556 nM. For the same molecule, the results for the inhibitory constant (Ki) on human Gcg receptor, at human GLP-1R and on human GIP receptor were 228 nM, 3.3 nM and 0.0849 nM, respectively.
With `CC[C@H](C)[C@H](NC(=O)[C@H](Cc1ccccc1)NC(=O)[C@H](C)NC(=O)[C@](C)(CCCCN)NC(=O)[C@H](CCC(N)=O)NC(=O)[C@H](C)NC(=O)[C@H](CCCCNC(=O)COCCOCCNC(=O)COCCOCCNC(=O)CC[C@H](NC(=O)CCCCCCCCCCCCCCCCCCC(=O)O)C(=O)O)NC(=O)[C@H](CCC(=O)O)NC(=O)[C@H](CC(=O)O)NC(=O)[C@H](CC(C)C)NC(=O)[C@](C)(CC(C)C)NC(=O)[C@@H](NC(=O)[C@H](CO)NC(=O)[C@H](Cc1ccc(O)cc1)NC(=O)[C@H](CC(=O)O)NC(=O)[C@H](CO)NC(=O)[C@@H](NC(=O)[C@H](Cc1ccccc1)NC(=O)[C@@H](NC(=O)CNC(=O)[C@H](CCC(=O)O)NC(=O)C(C)(C)NC(=O)[C@@H](N)Cc1ccc(O)cc1)[C@@H](C)O)[C@@H](C)O)[C@@H](C)CC)C(=O)N[C@@H](CCC(=O)O)C(=O)N[C@@H](Cc1ccc(O)cc1)C(=O)N[C@@H](CC(C)C)C(=O)N[C@@H](CC(C)C)C(=O)N[C@@H](CCC(=O)O)C(=O)NCC(=O)NCC(=O)N1CCC[C@H]1C(=O)N[C@@H](CO)C(=O)N[C@@H](CO)C(=O)NCC(=O)N[C@@H](C)C(=O)N1CCC[C@H]1C(=O)N1CCC[C@H]1C(=O)N1CCC[C@H]1C(=O)N[C@@H](CO)C(N)=O` [Example 21] (H-Y[Aib]EGTFTSDYSI[αMeL]LDEK([AEEA-AEEA-γGlu-C20 diacid])AQ[αMeK]AFIEYLLEGGPSSGAPPPS-NH2), the results for the EC50 in assay [1] and in assay [2] were 0.16 nM and 0.0748 nM, respectively. In addition, the inhibitory constant (Ki) – broadly, a measure of affinity in units of concentration, obtained from inhibition or displacement – on human Gcg receptor came out at 149 nM; at human GLP-1R, 14.5 nM; at human GIP receptor it was 0.529 nM.
In the same order, the values of `CC[C@H](C)[C@H](NC(=O)[C@H](Cc1ccccc1)NC(=O)[C@H](C)NC(=O)[C@](C)(CCCCN)NC(=O)[C@H](CCC(N)=O)NC(=O)[C@H](C)NC(=O)[C@H](CCCCNC(=O)COCCOCCNC(=O)COCCOCCNC(=O)CC[C@H](NC(=O)CCCCCCCCCCCCCCCCCCC(=O)O)C(=O)O)NC(=O)[C@H](CCC(=O)O)NC(=O)[C@H](CC(=O)O)NC(=O)[C@H](CC(C)C)NC(=O)[C@](C)(CC(C)C)NC(=O)[C@@H](NC(=O)[C@H](CO)NC(=O)[C@H](Cc1ccc(O)cc1)NC(=O)[C@H](CC(=O)O)NC(=O)[C@H](CO)NC(=O)[C@@H](NC(=O)[C@H](Cc1ccccc1)NC(=O)[C@@H](NC(=O)CNC(=O)[C@H](CCC(=O)O)NC(=O)C(C)(C)NC(=O)[C@@H](N)Cc1ccc(O)cc1)[C@@H](C)O)[C@@H](C)O)[C@@H](C)CC)C(=O)N[C@@H](CCC(=O)O)C(=O)N[C@@H](Cc1ccc(O)cc1)C(=O)N[C@@H](CC(C)C)C(=O)N[C@@H](CC(C)C)C(=O)N[C@@H](CCC(=O)O)C(=O)NC(C)(C)C(=O)NCC(=O)N1CCC[C@H]1C(=O)N[C@@H](CO)C(=O)N[C@@H](CO)C(=O)NCC(=O)N[C@@H](C)C(=O)N1CCC[C@H]1C(=O)N1CCC[C@H]1C(=O)N1CCC[C@H]1C(=O)N[C@@H](CO)C(N)=O` [Example 22] (H-Y[Aib]EGTFTSDYSI[αMeL]LDEK([AEEA-AEEA-γGlu-C20 diacid])AQ[αMeK]AFIEYLLE[Aib]GPSSGAPPPS-NH2; N-terminus assumed) are 0.206 nM, 0.0842 nM, 53.4 nM, 23.1 nM and 0.624 nM.
On to `CC[C@H](C)[C@H](NC(=O)[C@H](CCCCN)NC(=O)[C@H](CC(=O)O)NC(=O)[C@H](CC(C)C)NC(=O)[C@H](CC(C)C)NC(=O)[C@@H](NC(=O)[C@H](CO)NC(=O)[C@H](CCCCNC(=O)COCCOCCNC(=O)COCCOCCNC(=O)CC[C@H](NC(=O)CCCCCCCCCCCCCCCCCCC(=O)O)C(=O)O)NC(=O)[C@H](CC(=O)O)NC(=O)[C@H](CO)NC(=O)[C@@H](NC(=O)[C@H](Cc1ccccc1)NC(=O)[C@@H](NC(=O)CNC(=O)[C@H](CCC(=O)O)NC(=O)C(C)(C)NC(=O)[C@@H](N)Cc1ccc(O)cc1)[C@@H](C)O)[C@@H](C)O)[C@@H](C)CC)C(=O)N[C@@H](C)C(=O)N[C@@H](CCC(N)=O)C(=O)NC(C)(C)C(=O)N[C@@H](C)C(=O)N[C@@H](Cc1ccccc1)C(=O)N[C@H](C(=O)N[C@@H](CCC(=O)O)C(=O)N[C@@H](Cc1ccc(O)cc1)C(=O)N[C@@H](CC(C)C)C(=O)N[C@H](C(=O)N[C@@H](CCC(=O)O)C(=O)NCC(=O)NCC(=O)N1CCC[C@H]1C(=O)N[C@@H](CO)C(=O)N[C@@H](CO)C(=O)NCC(=O)N[C@@H](C)C(=O)N1CCC[C@H]1C(=O)N1CCC[C@H]1C(=O)N1CCC[C@H]1C(=O)N[C@@H](CO)C(N)=O)[C@@H](C)CC)[C@@H](C)CC` [Example 23] (H-Y[Aib]EGTFTSDK([AEEA-AEEA-γGlu-C20 diacid])SILLDKIAQ[Aib]AFIEYLIEGGPSSGAPPPS-NH2), for which the EC50 in assay [1] worked out at 0.19 nM; in assay [2] it was 0.204 nM. In addition, the Ki is over 1010 nM on human Gcg receptor, 6.32 nM on human GLP-1R and 0.258 nM on human GIP receptor.
Turning to `CC[C@H](C)[C@H](NC(=O)[C@H](CCCCN)NC(=O)[C@H](CC(=O)O)NC(=O)[C@H](CC(C)C)NC(=O)[C@H](CC(C)C)NC(=O)[C@@H](NC(=O)[C@H](CCCCNC(=O)COCCOCCNC(=O)COCCOCCNC(=O)CC[C@H](NC(=O)CCCCCCCCCCCCCCCCCCC(=O)O)C(=O)O)NC(=O)[C@H](Cc1ccc(O)cc1)NC(=O)[C@H](CC(=O)O)NC(=O)[C@H](CO)NC(=O)[C@@H](NC(=O)[C@H](Cc1ccccc1)NC(=O)[C@@H](NC(=O)CNC(=O)[C@H](CCC(=O)O)NC(=O)C(C)(C)NC(=O)[C@@H](N)Cc1ccc(O)cc1)[C@@H](C)O)[C@@H](C)O)[C@@H](C)CC)C(=O)N[C@@H](C)C(=O)N[C@@H](CCC(N)=O)C(=O)NC(C)(C)C(=O)N[C@@H](C)C(=O)N[C@@H](Cc1ccccc1)C(=O)N[C@H](C(=O)N[C@@H](CCC(=O)O)C(=O)N[C@@H](Cc1ccc(O)cc1)C(=O)N[C@@H](CC(C)C)C(=O)N[C@H](C(=O)N[C@@H](CCC(=O)O)C(=O)NCC(=O)NCC(=O)N1CCC[C@H]1C(=O)N[C@@H](CO)C(=O)N[C@@H](CO)C(=O)NCC(=O)N[C@@H](C)C(=O)N1CCC[C@H]1C(=O)N1CCC[C@H]1C(=O)N1CCC[C@H]1C(=O)N[C@@H](CO)C(N)=O)[C@@H](C)CC)[C@@H](C)CC` [Example 24] (H-Y[Aib]EGTFTSDYK([AEEA-AEEA-γGlu-C20 diacid])ILLDKIAQ[Aib]AFIEYLIEGGPSSGAPPPS-NH2), the values for the 50% effective concentration (EC50) in assay [1] and in assay [2] were 13 nM and 0.762 nM, respectively. Further, the results for the Ki on human Gcg receptor, at human GLP-1R and on human GIP receptor were 49.8 nM, 5.04 nM and 0.232 nM, respectively.
